Target: RIPK2 (Homo sapiens (Human), UniProt O43353)
Assay: RIPK2 inhibition, ADP-Glo Kinase Assay
Assay type: biochemical
Conditions: 8His-RIPK2 FL enzyme 8 nM, ATP 5 μM, 15 minutes pre-incubation, 60 minutes at 37° C., luminescence
Procedure, shortened: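 Full-length 8His-RIPK2 (8 nM) preincubated 15 min at RT with compound (1% DMSO), then 5 μM ATP added for 60 min at 37 °C in HEPES pH 7.5 buffer with Mg2+/Mn2+. ADP measured by ADP-Glo luminescence; activity expressed as % of vehicle control, no-enzyme wells as low control.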

Chain of RIPK2 (O43353 whole entry): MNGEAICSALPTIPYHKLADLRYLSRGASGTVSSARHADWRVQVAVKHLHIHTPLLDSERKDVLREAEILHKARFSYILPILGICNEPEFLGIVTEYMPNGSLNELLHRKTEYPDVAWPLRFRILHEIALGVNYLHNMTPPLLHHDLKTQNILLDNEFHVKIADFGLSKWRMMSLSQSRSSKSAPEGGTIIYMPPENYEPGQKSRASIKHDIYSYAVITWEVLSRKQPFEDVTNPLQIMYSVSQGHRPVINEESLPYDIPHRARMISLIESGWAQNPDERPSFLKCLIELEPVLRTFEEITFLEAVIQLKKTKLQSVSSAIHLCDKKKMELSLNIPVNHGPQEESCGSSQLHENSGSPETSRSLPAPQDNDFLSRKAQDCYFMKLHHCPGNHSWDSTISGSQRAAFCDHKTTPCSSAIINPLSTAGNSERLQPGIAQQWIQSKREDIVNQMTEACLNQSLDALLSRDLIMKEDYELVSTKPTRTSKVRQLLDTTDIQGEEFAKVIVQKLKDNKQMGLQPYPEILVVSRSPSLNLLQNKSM

Row | Compound | IC50 [nM]
1 | CC(=O)N1CC[C@H](Oc2cncc(-n3cc(-c4cc(C(=O)NC5CC5)ccc4C)cn3)c2)C1 [Example 129, 3-[1-(5-{[(3S)-1-acetylpyrrolidin-3-yl]oxy}pyridin-3-yl)-1H-pyrazol-4-yl]-N-cyclopropyl-4-methyl-benzamide] | 44
2 | Cc1ccc(C(=O)NC2CC2)cc1-c1cnn(-c2cncc(C3(C#N)CC3)c2)c1 [Example 131, 3-{1-[5-(1-cyanocyclopropyl)pyridin-3-yl]-1H-pyrazol-4-yl}-N-cyclo-propyl-4-methylbenzamide] | 11
3 | Cc1ccc(C(=O)NC2CC2)cc1-c1cnn(-c2cncc(CN3CCOCC3=O)c2)c1 [Example 135, N-cyclopropyl-4-methyl-3-(1-{5-[(3-oxomorpholin-4-yl)methyl]pyridin-3-yl}-1H-pyrazol-4-yl)benzamide] | 120
4 | Cc1ccc(C(=O)NC2CC2)cc1-c1cnn(-c2cncc(C(C)N3CCCCS3(=O)=O)c2)c1 (stereo not shown) [Example 136, N-cyclopropyl-3-(1-{5-[1-(1,1-dioxo-1λ^6,2-thiazinan-2-yl)ethyl]pyridin-3-yl}-1H-pyrazol-4-yl)-4-methyl-benzamide] | 43
5 | Cc1ccc(C(=O)NC2CC2)cc1-c1cnn(-c2cncc(C3(O)CCOCC3)c2)c1 [Example 137, N-cyclopropyl-3-{1-[5-(4-hydroxy-oxan-4-yl)pyridin-3-yl]-1H-pyrazol-4-yl}-4-methylbenzamide] | 120
6 | Cc1ccc(C(=O)NC2CC2)cc1-c1cnn(-c2cncc(C3(O)CCOC3)c2)c1 (stereo not shown) [Example 138, N-cyclopropyl-3-{1-[5-(3-hydroxy-oxolan-3-yl)pyridin-3-yl]-1H-pyrazol-4-yl}-4-methylbenzamide] | 25
7 | Cc1ccc(C(=O)NC2CC2)cc1-c1cnn(-c2cncc(C(C)N3CCCC3=O)c2)c1 (stereo not shown) [Example 140, N-cyclopropyl-4-methyl-3-(1-{5-[1-(2-oxopyrrolidin-1-yl)ethyl]pyridin-3-yl}-1H-pyrazol-4-yl)benzamide] | 38
8 | CNc1cncc(-n2cc(-c3cc(C(=O)NC4CC4)ccc3C)cn2)c1 [Example 141, N-cyclopropyl-4-methyl-3-{1-[5-(methylamino)pyridin-3-yl]-1H-pyrazol-4-yl}benzamide] | 2.6
9 | Cc1ccc(C(=O)NC2CC2)cc1-c1cnn(-c2cncc(NC(=O)NC3CCOC3)c2)c1 (stereo not shown) [Example 142, N-cyclopropyl-4-methyl-3-[1-(5-{[(oxolan-3-yl)carbamoyl]amino}pyridin-3-yl)-1H-pyrazol-4-yl] benzamide] | 3.2
10 | COCCC(=O)Nc1cncc(-n2cc(-c3cc(C(=O)NC4CC4)ccc3C)cn2)c1 [Example 143, N-cyclopropyl-3-{1-[5-(3-methoxypropanamido)pyridin-3-yl]-1H-pyrazol-4-yl}-4-methylbenzamide] | 6.1
11 | Cc1ccc(C(=O)NC2CC2)cc1-c1cnn(-c2cncc(NC(=O)C3CC3)c2)c1 [Example 144, 3-[1-(5-cyclopropaneamidopyridin-3-yl)-1H-pyrazol-4-yl]-N-cyclo-propyl-4-methylbenzamide] | 2.9
12 | Cc1ccc(C(=O)NC2CC2)cc1-c1cnn(-c2cncc(OC3CCOC3)c2)c1 (stereo not shown) [Example 145, N-cyclopropyl-4-methyl-3-{1-[5-(oxolan-3-yloxy)pyridin-3-yl]-1H-pyrazol-4-yl}benzamide] | 4.7
13 | Cc1ccc(C(=O)NC2CC2)cc1-c1cnn(-c2cncc(OCC3CC3)c2)c1 [Example 146, N-cyclopropyl-3-{1-[5-(cyclopropylmethoxy)pyridin-3-yl]-1H-pyrazol-4-yl}-4-methyl-benzamide] | 6.1
14 | Cc1ccc(C(=O)NC2CC2)cc1-c1cnn(-c2cncc(OCC3CCOCC3)c2)c1 [Example 147, N-cyclopropyl-4-methyl-3-{1-[5-(oxan-4-ylmethoxy)pyridin-3-yl]-1H-pyrazol-4-yl}benzamide] | 8.1
15 | Cc1ccc(C(=O)NC2CC2)cc1-c1cnn(-c2cncc(OC3CCCC3)c2)c1 [Example 148, 3-{1-[5-(cyclopentyloxy)pyridin-3-yl]-1H-pyrazol-4-yl}-N-cyclopropyl-4-methylbenzamide] | 12
16 | CC(=O)N1CCC(Oc2cncc(-n3cc(-c4cc(C(=O)NC5CC5)ccc4C)cn3)c2)CC1 [Example 149, 3-(1-{5-[(1-acelylpiperidin-4-yl)oxy]pyridin-3-yl}-1H-pyrazol-4-yl)-N-cyclopropyl-4-methyl-benzamide] | 8.9
17 | Cc1ccc(C(=O)NC2CC2)cc1-c1cnn(-c2cncc(OC[C@H]3CCCO3)c2)c1 [Example 150, N-cyclopropyl-4-methyl-3-(1-{5-[(2R)-oxolan-2-ylmethoxy]pyridin-3-yl}-1H-pyrazol-4-yl) benzamide] | 7

Row | Compound | IC50 [nM]
18 | Cc1ccc(C(=O)NC2CC2)cc1-c1cnn(-c2cncc(OC3CCC(C#N)C3)c2)c1 (stereo not shown) [Example 151, 3-(1-{5-[(3-cyanocyclopentyl)oxy]pyridin-3-yl}-1H-pyrazol-4-yl)-N-cyclopropyl-4-methylbenzamide] | 6.4
19 | Cc1ccc(C(=O)NC2CC2)cc1-c1cnn(-c2cncc(OC3CC(CO)(CO)C3)c2)c1 [Example 152, 3-(1-{5-[3,3-bis(hydroxymethyl)cyclobutoxy]pyridin-3-yl}-1H-pyrazol-4-yl)-N-cyclopropyl-4-methylbenzamide] | 4.2
20 | Cc1ccc(C(=O)NC2CC2)cc1-c1cnn(-c2cncc(NC3CCN(C(C)CCO)CC3)c2)c1 (stereo not shown) [Example 153, N-cyclopropyl-3-[1-(5-{[1-(4-hydroxybutan-2-yl)piperidin-4-yl]amino}pyridin-3-yl)-1H-pyrazol-4-yl]-4-methylbenzamide] | 1.6
21 | Cc1ccc(C(=O)NC2CC2)cc1-c1cnn(-c2cncc(NC3CCN(CC4CCOC4)CC3)c2)c1 (stereo not shown) [Example 154, N-cyclopropyl-4-methyl-3-[1-(5-{[1-(oxolan-3-ylmethyl)piperidin-4-yl]amino}pyridin-3-yl)-1H-pyrazol-4-yl]benzamide] | 1.8
22 | Cc1ccc(C(=O)NC2CC2)cc1-c1cnn(-c2cncc(NC3CCN(CC4CCOCC4)CC3)c2)c1 [Example 155, N-cyclopropyl-4-methyl-3-[1-(5-{[1-(oxan-4-ylmethyl)piperidin-4-yl]amino}pyridin-3-yl)-1H-pyrazol-4-yl]benzamide] | 1.7
23 | COCC(C)N1CCC(Nc2cncc(-n3cc(-c4cc(C(=O)NC5CC5)ccc4C)cn3)c2)CC1 (stereo not shown) [Example 156, N-cyclopropyl-3-[1-(5-{[1-(1-methoxypropan-2-yl)piperidin-4-yl]amino}pyridin-3-yl)-1H-pyrazol-4-yl]-4-methylbenzamide] | 1.6
24 | Cc1ccc(C(=O)NC2CC2)cc1-c1cnn(-c2cncc(NC3CCN(C(C)CO)CC3)c2)c1 (stereo not shown) [Example 157, N-cyclopropyl-3-[1-(5-{[1-(1-hydroxypropan-2-yl)piperidin-4-yl]amino}pyridin-3-yl)-1H-pyrazol-4-yl]-4-methylbenzamide] | 1.9
25 | CC(=O)N1CCC(N2CCC(Nc3cncc(-n4cc(-c5cc(C(=O)NC6CC6)ccc5C)cn4)c3)CC2)CC1 [Example 158, 3-[1-(5-{[1-(1-acetylpiperidin-4-yl)piperidin-4-yl]amino}pyridin-3-yl)-1H-pyrazol-4-yl]-N-cyclopropyl-4-methylbenzamide] | 1.2
26 | Cc1ccc(C(=O)NC2CC2)cc1-c1cnn(-c2cncc(NC3CCN(C4CCOC4C)CC3)c2)c1 (stereo not shown) [Example 159, N-cyclopropyl-4-methyl-3-[1-(5-{[1-(2-methyloxolan-3-yl)piperidin-4-yl]amino}pyridin-3-yl)-1H-pyrazol-4-yl]benzamide] | 1.8
27 | COC1CCC(N2CCC(Nc3cncc(-n4cc(-c5cc(C(=O)NC6CC6)ccc5C)cn4)c3)CC2)CC1 (stereo not shown) [Example 160, N-cyclopropyl-3-[1-(5-{[1-(4-methoxycyclohexyl)piperidin-4-yl]amino}pyridin-3-yl)-1H-pyrazol-4-yl]-4-methylbenzamide] | 1.1
28 | Cc1ccc(C(=O)NC2CC2)cc1-c1cnn(-c2cncc(NC3CCN(C4CCCOC4)CC3)c2)c1 (stereo not shown) [Example 161, N-cyclopropyl-4-methyl-3-[1-(5-{[1-(oxan-3-yl)piperidin-4-yl]amino}pyridin-3-yl)-1H-pyrazol-4-yl] benzamide] | 1.5
29 | Cc1ccc(C(=O)NC2CC2)cc1-c1cnn(-c2cncc(NC3CCN(C4CCOCC4)CC3)c2)c1 [Example 162, N-cyclopropyl-4-methyl-3-[1-(5-{[1-(oxan-4-yl)piperidin-4-yl]amino}pyridin-3-yl)-1H-pyrazol-4-yl] benzamide] | 2.3
30 | COC1COCCC1N1CCC(Nc2cncc(-n3cc(-c4cc(C(=O)NC5CC5)ccc4C)cn3)c2)CC1 (stereo not shown) [Example 163, N-cyclopropyl-3-[1-(5-{[1-(3-methoxyoxan-4-yl)piperidin-4-yl]amino}pyridin-3-yl)-1H-pyrazol-4-yl]-4-methylbenzamide] | 1.1
31 | Cc1ccc(C(=O)NC2CC2)cc1-c1cnn(-c2cncc(NC3CCN(C4CCOCC4C)CC3)c2)c1 (stereo not shown) [Example 164, N-cyclopropyl-4-methyl-3-[1-(5-{[1-(3-methyloxan-4-yl)piperidin-4-yl]amino}pyridin-3-yl)-1H-pyrazol-4-yl]benzamide] | 2.1
32 | Cc1ccc(C(=O)NC2CC2)cc1-c1cnn(-c2cncc(NC3CCN(C4CCOC(C)C4)CC3)c2)c1 (stereo not shown) [Example 165, N-cyclopropyl-4-methyl-3-[1-(5-{[1-(2-methyloxan-4-yl)piperidin-4-yl]amino}pyridin-3-yl)-1H-pyrazol-4-yl]benzamide] | 1.2
33 | Cc1ccc(C(=O)NC2CC2)cc1-c1cnn(-c2cncc(NC3CCN(C4CCOC4)CC3)c2)c1 (stereo not shown) [Example 166, N-cyclopropyl-4-methyl-3-[1-(5-{[1-(oxolan-3-yl)piperidin-4-yl]amino}pyridin-3-yl)-1H-pyrazol-4-yl] benzamide] | 0.94
34 | Cc1ccc(C(=O)NC2CC2)cc1-c1cnn(-c2cncc(NC3CCN(CC4C5COCC54)CC3)c2)c1 (stereo not shown) [Example 167, N-cyclopropyl-4-methyl-3-(1-{5-[(1-{3-oxabicyclo[3.1.0]hexan-6-ylmethyl}piperidin-4-yl)amino]pyridin-3-yl}-1H-pyrazol-4-yl) benzamide] | 1

From US10138222B2, “Substituted benzamides as RIPK2 inhibitors” (Boehringer Ingelheim International GmbH, priority 2016, dated 2018)
